# In patent US20260209219A1, “SUBSTITUTED TETRAHYDROPYRROLO-PYRIDINONE COMPOUNDS AND THEIR USE IN TREATING MEDICAL CONDITIONS” (Karuna Therapeutics, Inc., priority 2022, published 2026):
# Key:
# hM4 receptors = target: T1, hM4 receptors (Homo sapiens, UniProt P08173); assay: Human M4 PAM pERK assay; format: cell-based; conditions: CHO cells expressing hM4; with EC20 of acetylcholine (10 nM final)
# T1 construct: expressed in transfected cells; host or cells: CHO cells
# T1 sequence (P08173 1-479): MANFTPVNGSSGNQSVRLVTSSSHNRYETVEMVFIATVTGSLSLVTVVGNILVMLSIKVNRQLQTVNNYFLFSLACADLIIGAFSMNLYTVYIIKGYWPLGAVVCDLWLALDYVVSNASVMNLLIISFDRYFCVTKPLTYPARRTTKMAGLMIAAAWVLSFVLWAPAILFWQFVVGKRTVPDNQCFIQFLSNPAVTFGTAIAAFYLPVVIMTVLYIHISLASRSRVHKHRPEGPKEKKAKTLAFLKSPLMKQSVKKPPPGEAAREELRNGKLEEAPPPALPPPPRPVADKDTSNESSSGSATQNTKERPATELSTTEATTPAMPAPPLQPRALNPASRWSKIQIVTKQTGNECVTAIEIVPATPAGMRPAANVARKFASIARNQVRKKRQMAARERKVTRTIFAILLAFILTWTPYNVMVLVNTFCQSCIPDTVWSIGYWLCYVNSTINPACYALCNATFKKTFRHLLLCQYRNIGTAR
# Protocol: Chinese hamster ovary (CHO) cells expressing either hM4 or rM4 receptors were frozen in assay ready vials (5×10^6 cells/vial) after bulking-up in culture. The day before an assay, vial(s) were thawed and cells seeded in 384 well white proxiplates at 1000/well for hM4 cells and at 2000/well for rM4 cells, in 10 μL of growth media (Hams/F12 with glutamax and 10% FCS) and incubated overnight at 37° C./5% CO2.
# On the following morning, the growth media was removed by ‘flicking out’ over a bin, patting the inverted plate onto tissue, and then replacing with 10 μL of wash media (Hams/F12 with glutamax and 8 mM HEPES, NB: serum free). Then, the wash media was removed in the same way and replaced with 8 μL/well of the serum free media. Plates were then re-incubated for a further 4 hours at 37° C./5% CO2.
# Compounds for testing were solubilized to 10 mM in DMSO and compound addition plates, consisting of ten-point concentration response curves (CRC) in duplicate points (10 μM top concentration, ½ log dilution series), were prepared by acoustic dispensing and the compound management group.
# After the 4-hour incubation in serum free media, a 4 μL aliquot of the 3× compound solution containing an EC20 of acetylcholine (10 nM final concentration) was added to the cell plate using a 384 well plate to plate transfer. Then, the plate lid was replaced, and the cells incubated for 5 mins at 37° C./5% CO2. Following this final incubation, all cellular processes were stopped by the addition of 4 μL/well of lysis and blocking buffer and plates were incubated for 30 minutes at RT on an orbital shaker (gentle setting). Then, a final addition of 4 μL/well of antibody detection mix, containing both the Europium-Cryptate (donor) and d2 (acceptor) tagged detection components, was added followed by a further 2-hour incubation at RT, and then the plate was read using a TR-FRET (time resolved fluorescence resonance energy transfer) based protocol.
# Sprague Dawley rats = assay: Amphetamine-evoked hyperlocomotion in rats (open field); format: in vivo, rat; conditions: adult male Sprague Dawley rats, 0.5 mg/kg amphetamine s.c., distance traveled over 60 min after AMP
# Protocol: Animals: Adult male, Sprague Dawley rats (Envigo, Indianapolis, IN, USA) were housed in a colony maintained at 23° C. with 12 hour light/dark cycles (lights on at 0600 hour). All animals weighed 290-330 g at the beginning of the study and were equally divided into 5 groups (n=8 per group) and received one of the treatment conditions listed below. Animal protocols were approved by an Animal Care and Use Committee.
# Behavioral Procedures: Studies were conducted in MedAssociates open field chambers (27.3 cm×27.3 cm×20.3 cm, MedAssociates, St. Albans, VT) in which movement was automatically tracked and recorded by 16 beam arrays. Administration pretreatment of the test article was determined to coincide with Tmax at the time of the amphetamine-evoked session with optimal route of administration. All groups were subcutaneously treated with 0.5 mg/kg amphetamine (AMP). […] Locomotor data (distance traveled) was recorded as 5-minute bins throughout the 90-minute session. […]
# Statistical Analysis: Spontaneous locomotion (prior to AMP administration) was calculated as the total distance traveled during the first 30 minutes of the experimental session. AMP-evoked responses were calculated as the total distance traveled during the last 60 minutes of the experimental session which commenced immediately after AMP administration. Locomotor data were analyzed by a one-way ANOVA. […]
Structure (SMILES),EC50 (hM4 receptors) [nM],Dose Amount of Compound at which rats displayed a reduction in amphetamine-evoked hyperlocomotion activity (Sprague Dawley rats) [mg/kg]
"Cc1cc(=O)n(C)c2c1CN(C(=O)CC1CC1c1ccc(C(F)(F)F)cc1)C2 (single isomer, unassigned) [Compound I-7]",100 to 500,32
Cc1c2c(n(C)c(=O)c1F)CN(C(=O)CC1CC1c1ccc(C(F)(F)F)cc1)C2 (stereo not shown) [Compound I-26],< 100,10
